In paper PMC9246016 (Pharmaceutical Biology, 2022):
Each block holds one compound with its values, some of them ahead of it.

Tests used:
[1] = molecular target: recombinant human CYP2C9 (RHCYP2C9) (Homo sapiens, UniProt P11712); test: Inhibition of RHCYP2C9 yeast microsomes, probe substrate diclofenac; conditions: for inhibitor intensity classification for CYP2C9: class by IC50, general rules (Testa 2007)
Method: (§1) RHCYP2C8 and RHCYP2C9 yeast microsomes were extracted using the glass bead crushing method and differential centrifugation, with grinding 15 times by 0.5 g glass beads and centrifugation at 9,000 g for 20 min at 4 °C. The supernatant was then centrifuged at 100,000 g at 4 °C (BECKMAN COULTER Optima™ L-80 XP Ultracentrifuge) for 1 h, and the precipitation was RHCYP2C8 or RHCYP2C9 yeast microsome. Reconstituted with potassium phosphate buffer (pH 7.4), the microsome solution was collected and stored at −80 °C for subsequent examination. Protein concentrations of microsomes were determined using the Lowry method.
Amodiaquine and diclofenac are typical CYP2C8 and CYP2C9 probe substrates, respectively. […] The reactions were initiated by the addition of NADPH with pre-incubation 10 min in advance and carried out for 40 min.
(§2) The CYP2C8 sample treatment process was that incubation was terminated by adding 200 μL of methanol. Samples were centrifuged at 12,000 rpm for 10 min, and the supernatant was subjected to HPLC. The CYP2C9 sample treatment process was that each sample (100 μL) was spiked with 10 μL of carbamazepine (30 μg/mL). The mixture was then extracted with 500 μL ethyl acetate by vortexing for 3 min and centrifuged at 12,000 rpm for 10 min. […] The residue was dissolved in 100 μL methanol for HPLC analysis.

CYP2C8 = tested on: CYP2C8; design: method as in Unger and Frank [2004]; conditions: ref Unger and Frank [2004]; read-out: IC50 for CYP2C8 (previous finding); cited from earlier work
[2] = molecular target: T1, recombinant human CYP2C8 (RHCYP2C8) (Homo sapiens, UniProt P10632); test: Inhibition of RHCYP2C8 yeast microsomes, probe substrate amodiaquine; conditions: for inhibitor intensity classification for CYP2C8: class by IC50, general rules (Testa 2007)
T1 sequence (P10632 1-490): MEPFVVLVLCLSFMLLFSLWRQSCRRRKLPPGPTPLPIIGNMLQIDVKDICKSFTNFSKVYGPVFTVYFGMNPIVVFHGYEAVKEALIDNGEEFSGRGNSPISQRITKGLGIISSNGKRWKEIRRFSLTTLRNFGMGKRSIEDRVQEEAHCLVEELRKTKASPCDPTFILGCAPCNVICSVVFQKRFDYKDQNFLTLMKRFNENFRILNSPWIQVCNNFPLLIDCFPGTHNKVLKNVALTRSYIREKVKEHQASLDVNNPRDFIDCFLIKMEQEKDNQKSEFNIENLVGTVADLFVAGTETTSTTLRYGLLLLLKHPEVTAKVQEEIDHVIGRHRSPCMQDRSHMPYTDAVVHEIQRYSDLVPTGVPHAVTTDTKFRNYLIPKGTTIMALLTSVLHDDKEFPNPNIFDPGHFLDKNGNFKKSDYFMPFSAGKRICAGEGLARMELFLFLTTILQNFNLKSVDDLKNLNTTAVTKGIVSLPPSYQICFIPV
Method: as §1
Amodiaquine and diclofenac are typical CYP2C8 and CYP2C9 probe substrates, respectively. […] The 0.4 mL incubation mixtures contained inhibitors (0–500 μmol/L), potassium phosphate buffer (pH 7.4) in common, and RHCYP2C8 (12.4 mg/mL) with amodiaquine or RHCYP2C9 (4.6 mg/mL) with diclofenac. […] The reactions were initiated by the addition of NADPH with pre-incubation 10 min in advance and carried out for 40 min.
as §2

[3] = Pharmacokinetics of ROS with single-dose GLT in rats; conditions: for CL/F / AUC(0-t) / Cmax / MRT / Tmax: ROS 10 mg/kg oral; for AUC(0-t) / Cmax / MRT / Tmax / half-life: male, Sprague-Dawley, rat, plasma, po, 10 mg/kg; for AUC(0-t): AUC0-t; for half-life: t1/2, ROS 10 mg/kg oral; for extension of MRT vs control: ROS 10 mg/kg
[4] = Pharmacokinetics of ROS after 10-day multiple-dose GLT in rats; type: in vivo, Sprague-Dawley rats; conditions: ROS 10 mg/kg oral; for AUC(0-t) / Cmax / MRT / Tmax / half-life: male, Sprague-Dawley, rat, plasma, po, 10 mg/kg
CYP2C9 and CYP3A4 = tested on: CYP2C9 and CYP3A4; design: method as in He and Edeki [2004]; conditions: inhibitory effects appear negligible; ref He and Edeki [2004]; cited from earlier work
[5] = multiple-dose GLT 100 mg/kg for 10 days
[6] = multiple-dose GLT 200 mg/kg for 10 days

Chain of recombinant human CYP2C9 (RHCYP2C9) (P11712 whole entry): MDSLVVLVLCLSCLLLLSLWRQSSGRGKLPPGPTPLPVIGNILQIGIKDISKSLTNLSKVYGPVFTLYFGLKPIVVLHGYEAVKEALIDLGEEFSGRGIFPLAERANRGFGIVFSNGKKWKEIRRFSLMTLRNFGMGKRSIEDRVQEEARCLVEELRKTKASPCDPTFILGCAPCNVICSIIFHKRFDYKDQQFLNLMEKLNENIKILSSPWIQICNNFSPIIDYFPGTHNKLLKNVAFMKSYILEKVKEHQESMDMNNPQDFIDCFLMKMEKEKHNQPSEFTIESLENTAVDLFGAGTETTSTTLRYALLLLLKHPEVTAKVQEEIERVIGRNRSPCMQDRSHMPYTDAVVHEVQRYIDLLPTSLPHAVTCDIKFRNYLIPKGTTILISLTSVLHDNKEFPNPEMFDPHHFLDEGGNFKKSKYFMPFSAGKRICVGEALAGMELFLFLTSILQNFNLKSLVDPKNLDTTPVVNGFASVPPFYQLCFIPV

Compound: O=c1c(O)c(-c2ccc(O)c(O)c2)oc2cc(O)cc(O)c12 [quercetin]
inhibitor intensity classification for CYP2C9 [1]: weak (weak inhibitors are over 10 μmol/L) | IC50 (CYP2C8): […] | inhibitor intensity classification for CYP2C8 [2]: moderate (moderate inhibitors are between 1 and 10 μmol/L)

CL/F ([3]; control (vehicle), single dose): 16.46 ± 1.91 mL/h | CL/F ([3]; single-dose GLT 100 mg/kg): 14.58 ± 2.12 mL/h | CL/F ([3]; single-dose GLT 200 mg/kg): 13.97 ± 3.43 mL/h | AUC(0-t) ([3]; control (vehicle), single dose): 117 ± 12.2 µg·h/mL | AUC(0-t) ([3]; single-dose GLT 100 mg/kg): 130 ± 24.3 µg·h/mL | AUC(0-t) ([3]; single-dose GLT 200 mg/kg): 139 ± 40.6 µg·h/mL | Cmax ([3]; control (vehicle), single dose): 29100 ± 5980 ng/mL | Cmax ([3]; single-dose GLT 100 mg/kg): 28800 ± 5860 ng/mL | Cmax ([3]; single-dose GLT 200 mg/kg): 26000 ± 6990 ng/mL | MRT ([3]; control (vehicle), single dose): 3.02 ± 0.28 h | MRT ([3]; single-dose GLT 100 mg/kg): 3.66 ± 0.63 h | MRT ([3]; single-dose GLT 200 mg/kg): 4.24 ± 1.04 h | Tmax ([3]; control (vehicle), single dose): 0.9 ± 0.34 h | Tmax ([3]; single-dose GLT 100 mg/kg): 1.01 ± 0.65 h | Tmax ([3]; single-dose GLT 200 mg/kg): 0.8 ± 0.26 h | half-life ([3]; control (vehicle), single dose): 2.14 ± 0.38 h | half-life ([3]; single-dose GLT 100 mg/kg): 2.79 ± 0.37 h | half-life ([3]; single-dose GLT 200 mg/kg): 3.26 ± 1.08 h | extension of MRT vs control ([3]; single-dose GLT 100 mg/kg): 21% | extension of MRT vs control ([3]; single-dose GLT 200 mg/kg): 40% | CL/F ([4]; control (vehicle 10 days)): 13.92 ± 3.04 mL/h | CL/F [4, 5]: 25.54 ± 9.02 mL/h | CL/F [4, 6]: 30.00 ± 8.52 mL/h | AUC(0-t) ([4]; control (vehicle 10 days)): 140 ± 45.5 µg·h/mL | Cmax ([4]; control (vehicle 10 days)): 38700 ± 9730 ng/mL | MRT ([4]; control (vehicle 10 days)): 3.27 ± 0.65 h | Tmax ([4]; control (vehicle 10 days)): 0.79 ± 0.4 h | half-life ([4]; control (vehicle 10 days)): 2.75 ± 0.7 h | AUC(0-t) [4, 5]: 84.6 ± 39.9 µg·h/mL | Cmax [4, 5]: 28500 ± 5560 ng/mL | MRT [4, 5]: 2.95 ± 1.13 h | Tmax [4, 5]: 0.54 ± 0.25 h | half-life [4, 5]: 1.99 ± 0.44 h | AUC(0-t) [4, 6]: 66.6 ± 15.9 µg·h/mL | Cmax [4, 6]: 28400 ± 4640 ng/mL | MRT [4, 6]: 2.13 ± 0.28 h | Tmax [4, 6]: 0.37 ± 0.13 h | half-life [4, 6]: 1.68 ± 0.35 h
Compound: CN(CCOc1ccc(CC2SC(=O)NC2=O)cc1)c1ccccn1 (centres unmarked) [ROS, Rosiglitazone]

IC50 [1]: 7.57 µM | IC50 [2]: 7.67 µM
Compound: O=c1c(O)c(-c2ccc(O)cc2)oc2cc(O)cc(O)c12 [kaempferol]
inhibitor intensity classification for CYP2C9 [1]: moderate (moderate inhibitors are between 1 and 10 μmol/L) | inhibitor intensity classification for CYP2C8 [2]: moderate (moderate inhibitors are between 1 and 10 μmol/L)

Compound: COc1cc(-c2oc3cc(O)cc(O)c3c(=O)c2O)ccc1O [isorhamnetin]
IC50 [1]: 4.59 µM | inhibitor intensity classification for CYP2C9 [1]: moderate (moderate inhibitors are between 1 and 10 μmol/L) | IC50 [2]: 11.9 µM | inhibitor intensity classification for CYP2C8 [2]: weak (weak inhibitors are over 10 μmol/L)

Compound: ginkgolide B
concentrations at which effects are pronounced (CYP2C9 and CYP3A4): greater than 100 μmol/L
